The source of these data is ChEMBL document CHEMBL1140602, “A simple, yet highly accurate, QSAR model captures the complement inhibitory activity of compstatin” (Bioorg Med Chem, 2007).

Positions of bridges follow the written chain, without caps; N, C: chain ends. Residues, ends and D or L forms follow the SMILES beside them.

A short description of the assay: Inhibition of C3b activation relative to compstatin.

For the molecule `CC(C)[C@@H]1NC(=O)[C@H](C(C)C)NC(=O)[C@@H](N)CSSC[C@@H](C(=O)O)NC(=O)[C@H](C)NC(=O)[C@H](Cc2cnc[nH]2)NC(=O)[C@H](Cc2cnc[nH]2)NC(=O)CNC(=O)[C@H](Cc2c[nH]c3ccccc23)NC(=O)[C@H](CC(=O)O)NC(=O)[C@H](CCC(N)=O)NC1=O` (H-CVVQDWGHHAC-OH; disulfide 1-11), the logIC50 is -0.767. Regarding `CC[C@H](C)[C@H](NC(C)=O)C(=O)N[C@H]1CSSC[C@@H](C(=O)N[C@H](C(N)=O)[C@@H](C)O)NC(=O)[C@H](CCCNC(=N)N)NC(=O)[C@H](Cc2cnc[nH]2)NC(=O)[C@H](C)NC(=O)CNC(=O)[C@H](Cc2c[nH]c3ncccc23)NC(=O)[C@H](CC(=O)O)NC(=O)[C@H](CCC(N)=O)NC(=O)[C@H](Cc2c[nH]c3ncccc23)NC(=O)[C@H](C(C)C)NC1=O`, the logIC50 was -0.358.

In turn, `CC(C)[C@@H]1NC(=O)[C@@H](NC(=O)[C@@H](N)CC(=O)O)CSSC[C@@H](C(=O)N[C@H](C(N)=O)[C@@H](C)O)NC(=O)[C@H](CCCCN)NC(=O)[C@H](Cc2cnc[nH]2)NC(=O)[C@H](Cc2cnc[nH]2)NC(=O)CNC(=O)[C@H](Cc2c[nH]c3ccccc23)NC(=O)[C@H](CC(=O)O)NC(=O)[C@H](CCC(N)=O)NC(=O)[C@H](C(C)C)NC1=O` (H-DCVVQDWGHHKCT-NH2; disulfide 2-12) gave a logIC50 of -0.264.
